Experimental data published in patent publication US10968225B2, “Compounds and compositions for the treatment of cystic fibrosis” (Fondazione Istituto Italiano Di Tecnologia, priority 2017, dated 2021).
Counter-ions that a name gives are not always drawn.

biological target: T1, mutant CFTR (Homo sapiens, UniProt P13569, DEL508-508); experiment: Fluorescence (HS-YFP) assay for CFTR activity, corrector assay; format: cell-based; conditions: CFBE41o- and FRT cells with stable expression of mutant CFTR, read-out: activity (EC50)
T1 construct: expressed in transfected cells
T1 sequence (P13569 with tags, fused parts or gaps DEL508-508): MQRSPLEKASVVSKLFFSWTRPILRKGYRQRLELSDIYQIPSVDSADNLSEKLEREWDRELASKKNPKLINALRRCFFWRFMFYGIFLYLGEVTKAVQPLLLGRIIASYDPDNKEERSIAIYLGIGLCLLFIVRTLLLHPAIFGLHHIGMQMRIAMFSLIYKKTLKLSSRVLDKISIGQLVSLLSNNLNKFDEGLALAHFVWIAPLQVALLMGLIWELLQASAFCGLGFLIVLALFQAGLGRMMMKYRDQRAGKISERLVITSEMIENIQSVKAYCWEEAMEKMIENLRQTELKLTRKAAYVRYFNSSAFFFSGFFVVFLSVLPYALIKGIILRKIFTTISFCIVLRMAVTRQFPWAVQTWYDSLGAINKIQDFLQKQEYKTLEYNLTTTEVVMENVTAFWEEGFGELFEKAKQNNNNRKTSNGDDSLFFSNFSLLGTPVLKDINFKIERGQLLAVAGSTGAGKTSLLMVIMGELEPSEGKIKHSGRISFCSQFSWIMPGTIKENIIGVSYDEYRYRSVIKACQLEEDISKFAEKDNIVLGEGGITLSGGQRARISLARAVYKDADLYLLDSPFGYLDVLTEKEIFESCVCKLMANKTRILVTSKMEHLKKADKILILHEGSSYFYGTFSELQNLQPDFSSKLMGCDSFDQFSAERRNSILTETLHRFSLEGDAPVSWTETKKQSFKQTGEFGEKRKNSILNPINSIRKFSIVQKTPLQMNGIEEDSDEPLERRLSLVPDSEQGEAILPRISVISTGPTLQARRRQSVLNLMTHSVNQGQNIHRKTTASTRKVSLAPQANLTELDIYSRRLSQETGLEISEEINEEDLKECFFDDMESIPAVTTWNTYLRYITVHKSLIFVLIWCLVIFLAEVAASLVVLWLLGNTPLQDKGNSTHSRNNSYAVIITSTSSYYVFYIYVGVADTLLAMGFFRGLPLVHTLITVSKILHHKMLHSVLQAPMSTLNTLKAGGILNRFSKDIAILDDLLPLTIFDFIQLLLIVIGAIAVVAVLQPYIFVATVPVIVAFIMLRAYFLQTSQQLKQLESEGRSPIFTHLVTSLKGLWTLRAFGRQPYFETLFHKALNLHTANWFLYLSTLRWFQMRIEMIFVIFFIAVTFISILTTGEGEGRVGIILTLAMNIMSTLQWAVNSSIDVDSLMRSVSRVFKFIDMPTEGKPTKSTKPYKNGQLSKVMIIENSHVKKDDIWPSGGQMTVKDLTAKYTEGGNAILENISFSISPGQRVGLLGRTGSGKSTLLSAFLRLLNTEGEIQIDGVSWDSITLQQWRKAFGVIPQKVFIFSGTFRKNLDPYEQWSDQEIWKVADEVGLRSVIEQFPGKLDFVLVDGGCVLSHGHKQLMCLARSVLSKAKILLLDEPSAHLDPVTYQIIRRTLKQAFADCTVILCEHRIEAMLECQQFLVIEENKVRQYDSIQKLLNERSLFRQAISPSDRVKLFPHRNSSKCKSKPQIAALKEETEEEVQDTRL

SMILES	EC50
CN(C(=O)c1cccc(-n2nc(C(F)(F)F)c3c2C(Oc2ncc(C(=O)O)cn2)COC3)c1)c1ccc2c(c1)OCC2 (single isomer, unassigned) [Compound 298, (R) or (S)-2-[[1-[3-[2,3-dihydrobenzofuran-6-yl(methyl)carbamoyl]phenyl]-3-(trifluoromethyl)-6,7-dihydro-4H-pyrano[4,3-c]pyrazol-7-yl]oxy]pyrimidine-5-carboxylic acid]	< 1000 nM
CN(C(=O)c1cccc(-n2nc(C(F)(F)F)c3c2C(Oc2ncc(C(=O)O)cn2)COC3)c1)c1ccc2c(c1)OCC2 (single isomer, unassigned) [Compound 299, (S) or (R)-2-[[1-[3-[2,3-dihydrobenzofuran-6-yl(methyl)carbamoyl]phenyl]-3-(trifluoromethyl)-6,7-dihydro-4H-pyrano[4,3-c]pyrazol-7-yl]oxy]pyrimidine-5-carboxylic acid]	1000 to 2000 nM
CN(C(=O)c1cccc(-n2nc(C(F)(F)F)c3c2C(Oc2ccc(CO)cc2)CCC3)c1)c1ccc2c(c1)OC(F)(F)O2 (stereo in doubt) [Compound 304, N-(2,2-Difluoro-1,3-benzodioxol-5-yl)-3-[(S)-7-[4-(hydroxymethyl)phenoxy]-3-(trifluoromethyl)-4,5,6,7-tetrahydroindazol-1-yl]-N-methyl-benzamide]	< 1000 nM
CN(C(=O)c1cccc(-n2nc(C(F)(F)F)c3c2CCN(C(=O)OC(C)(C)C)C3)c1)c1ccc2c(c1)OCO2 [Compound 001, Tert-butyl 1-[3-[1,3-benzodioxol-5-yl(methyl)carbamoyl]phenyl]-3-(trifluoromethyl)-6,7-dihydro-4H-pyrazolo[4,3-c]pyridine-5-carboxylate]	< 1000 nM
CN(C(=O)c1cccc(-n2nc(C(F)(F)F)c3c2CCNC3)c1)c1ccc2c(c1)OCO2 [Compound 002, N-(1,3-Benzodioxol-5-yl)-N-methyl-3-[3-(trifluoromethyl)-4,5,6,7-tetrahydropyrazolo[4,3-c]pyridin-1-yl] benzamide hydrochloride]	< 1000 nM
CC(=O)N1CCc2c(c(C(F)(F)F)nn2-c2cccc(C(=O)N(C)c3ccc4c(c3)OCO4)c2)C1 [Compound 004, 3-[5-Acetyl-3-(trifluoromethyl)-6,7-dihydro-4H-pyrazolo[4,3-c]pyridin-1-yl]-N-(1,3-benzodioxol-5-yl)-N-methyl-benzamide]	< 1000 nM
CN(C(=O)c1cccc(-n2nc(C(F)(F)F)c3c2CCCC3)c1)c1ccc2c(c1)OCO2 [Compound 005, N-(1,3-Benzodioxol-5-yl)-N-methyl-3-[3-(trifluoromethyl)-4,5,6,7-tetrahydroindazol-1-yl]benzamide]	< 1000 nM
CN(C(=O)c1cccc(-n2nc(C(F)(F)F)c3c2CCN(S(C)(=O)=O)C3)c1)c1ccc2c(c1)OCO2 [Compound 006, N-(1,3-Benzodioxol-5-yl)-N-methyl-3-[5-methylsulfonyl-3-(trifluoromethyl)-6,7-dihydro-4H-pyrazolo[4,3-c]pyridin-1-yl]benzamide]	< 1000 nM
CN(C(=O)c1cccc(-n2nc(C(F)(F)F)c3c2CCN(S(=O)(=O)c2ccccc2)C3)c1)c1ccc2c(c1)OCO2 [Compound 007, 3-[5-(Benzenesulfonyl)-3-(trifluoromethyl)-6,7-dihydro-4H-pyrazolo[4,3-c]pyridin-1-yl]-N-(1,3-benzodioxol-5-yl)-N-methyl-benzamide]	< 1000 nM
CN(C(=O)c1cccc(-n2nc(C(F)(F)F)c3c2CCN(C(=O)c2ccccc2)C3)c1)c1ccc2c(c1)OCO2 [Compound 008, N-(1,3-Benzodioxol-5-yl)-3-[5-benzoyl-3-(trifluoromethyl)-6,7-dihydro-4H-pyrazolo[4,3-c]pyridin-1-yl]-N-methyl-benzamide]	< 1000 nM
COC(=O)N1CCc2c(c(C(F)(F)F)nn2-c2cccc(C(=O)N(C)c3ccc4c(c3)OCO4)c2)C1 [Compound 009, Methyl 1-[3-[1,3-benzodioxol-5-yl(methyl)carbamoyl]phenyl]-3-(trifluoromethyl)-6,7-dihydro-4H-pyrazolo[4,3-c] pyridine-5-carboxylate]	< 1000 nM
CN(C(=O)c1cccc(-n2nc(C(F)(F)F)c3c2CCN(C[C@@H]2COC(C)(C)O2)C3)c1)c1ccc2c(c1)OCO2 [Compound 013, N-(1,3-Benzodioxol-5-yl)-3-[5-[[(4R)-2,2-dimethyl-1,3-dioxolan-4-yl]methyl]-3-(trifluoromethyl)-6,7-dihydro-4H-pyrazolo[4,3-c]pyridin-1-yl]-N-methyl-benzamide]	< 1000 nM
CN(C(=O)c1cccc(-n2nc(C(F)(F)F)c3c2CCN(C[C@H]2COC(C)(C)O2)C3)c1)c1ccc2c(c1)OCO2 [Compound 014, N-(1,3-Benzodioxol-5-yl)-3-[5-[[(4S)-2,2-dimethyl-1,3-dioxolan-4-yl]methyl]-3-(trifluoromethyl)-6,7-dihydro-4H-pyrazolo[4,3-c]pyridin-1-yl]-N-methyl-benzamide]	< 1000 nM
CN(C(=O)c1cccc(-n2nc(C(F)(F)F)c3c2CCN(C[C@@H](O)CO)C3)c1)c1ccc2c(c1)OCO2 [Compound 015, N-(1,3-Benzodioxol-5-yl)-3-[5-[(2R)-2,3-dihydroxypropyl]-3-(trifluoromethyl)-6,7-dihydro-4H-pyrazolo[4,3-c]pyridin-1-yl]-N-methyl-benzamide]	< 1000 nM
CN(C(=O)c1cccc(-n2nc(C(F)(F)F)c3c2CCN(C[C@H](O)CO)C3)c1)c1ccc2c(c1)OCO2 [Compound 016, N-(1,3-Benzodioxol-5-yl)-3-[5-[(2S)-2,3-dihydroxypropyl]-3-(trifluoromethyl)-6,7-dihydro-4H-pyrazolo[4,3-c]pyridin-1-yl]-N-methyl-benzamide]	< 1000 nM
CN1CCOc2c(c(C(F)(F)F)nn2-c2cccc(C(=O)N(C)c3ccc4c(c3)OCO4)c2)C1 [Compound 017, N-(1,3-Benzodioxol-5-yl)-N-methyl-3-[5-methyl-3-(trifluoromethyl)-6,7-dihydro-4H-pyrazolo[4,3-f][1,4]oxazepin-1-yl]benzamide]	< 1000 nM
CN(C(=O)c1cccc(-n2nc(C(F)(F)F)c3c2CCN(CC2CC2)C3)c1)c1ccc2c(c1)OCO2 [Compound 019, N-(1,3-Benzodioxol-5-yl)-3-[5-(cyclopropylmethyl)-3-(trifluoromethyl)-6,7-dihydro-4H-pyrazolo[4,3-c]pyridin-1-yl]-N-methyl-benzamide]	< 1000 nM
CC(C)N1CCc2c(c(C(F)(F)F)nn2-c2cccc(C(=O)N(C)c3ccc4c(c3)OCO4)c2)C1 [Compound 021, N-(1,3-Benzodioxol-5-yl)-3-[5-isopropyl-3-(trifluoromethyl)-6,7-dihydro-4H-pyrazolo[4,3-c]pyridin-1-yl]-N-methyl-benzamide]	< 1000 nM
CN(C(=O)c1cccc(-n2nc(C(F)(F)F)c3c2CCN(Cc2cccc(C(=O)O)c2)C3)c1)c1ccc2c(c1)OCO2 [Compound 025, 3-[[1-[3-[1,3-Benzodioxol-5-yl(methyl)carbamoyl]phenyl]-3-(trifluoromethyl)-6,7-dihydro-4H-pyrazolo[4,3-c]pyridin-5-yl]methyl]benzoic acid]	< 1000 nM
CN(C(=O)c1cccc(-n2nc(C(F)(F)F)c3c2CCN(Cc2ccc(C(=O)O)cc2)C3)c1)c1ccc2c(c1)OCO2 [Compound 026, 4-[[1-[3-[1,3-Benzodioxol-5-yl(methyl)carbamoyl]phenyl]-3-(trifluoromethyl)-6,7-dihydro-4H-pyrazolo[4,3-c]pyridin-5-yl]methyl]benzoic acid]	< 1000 nM
CN(C(=O)c1cccc(-n2nc(C(F)(F)F)c3c2CN(C(=O)OC(C)(C)C)CC3)c1)c1ccc2c(c1)OCO2 [Compound 027, tert-Butyl 1-[3-[1,3-benzodioxol-5-yl(methyl)carbamoyl]phenyl]-3-(trifluoromethyl)-5,7-dihydro-4H-pyrazolo[3,4-c]pyridine-6-carboxylate]	< 1000 nM
CN(C(=O)c1cccc(-n2nc(C(F)(F)F)c3c2CCCN3C(=O)OC(C)(C)C)c1)c1ccc2c(c1)OCO2 [Compound 028, tert-Butyl 1-[3-[1,3-benzodioxol-5-yl(methyl)carbamoyl]phenyl]-3-(trifluoromethyl)-6,7-dihydro-5H-pyrazolo[4,3-b]pyridine-4-carboxylate]	< 1000 nM
CN1CCc2c(C(F)(F)F)nn(-c3cccc(C(=O)N(C)c4ccc5c(c4)OCO5)c3)c2C1 [Compound 029, N-(1,3-Benzodioxol-5-yl)-N-methyl-3-[6-methyl-3-(trifluoromethyl)-5,7-dihydro-4H-pyrazolo[3,4-c]pyridin-1-yl]benzamide]	< 1000 nM
Cc1nc2ccc(N(C)C(=O)c3cccc(-n4nc(C(F)(F)F)c5c4CCNC5)c3)cc2o1 [Compound 030, N-Methyl-N-(2-methyl-1,3-benzoxazol-6-yl)-3-[3-(trifluoromethyl)-4,5,6,7-tetrahydropyrazolo[4,3-c]pyridin-1-yl]benzamide hydrochloride]	1000 to 2000 nM
CC(C)C(=O)N1CCc2c(c(C(F)(F)F)nn2-c2cccc(C(=O)N(C)c3ccc4c(c3)OCO4)c2)C1 [Compound 031, N-(1,3-Benzodioxol-5-yl)-N-methyl-3-[5-(2-methylpropanoyl)-3-(trifluoromethyl)-6,7-dihydro-4H-pyrazolo[4,3-c]pyridin-1-yl]benzamide]	< 1000 nM
CN(C(=O)c1cccc(-n2nc(C(F)(F)F)c3c2CCN(C(=O)C(C)(C)C(F)(F)F)C3)c1)c1ccc2c(c1)OCO2 [Compound 033, N-(1,3-Benzodioxol-5-yl)-N-methyl-3-[5-(3,3,3-trifluoro-2,2-dimethyl-propanoyl)-3-(trifluoromethyl)-6,7-dihydro-4H-pyrazolo[4,3-c]pyridin-1-yl]benzamide]	< 1000 nM
CN(C(=O)c1cccc(-n2nc(C(F)(F)F)c3c2CCN(C(=O)C2(O)CC2)C3)c1)c1ccc2c(c1)OCO2 [Compound 034, N-(1,3-Benzodioxol-5-yl)-3-[5-(1-hydroxycyclopropanecarbonyl)-3-(trifluoromethyl)-6,7-dihydro-4H-pyrazolo[4,3-c]pyridin-1-yl]-N-methyl-benzamide]	< 1000 nM
CN(C(=O)c1cccc(-n2nc(C(F)(F)F)c3c2CCN(C(=O)C(C)(C)c2ccccc2)C3)c1)c1ccc2c(c1)OCO2 [Compound 035, N-(1,3-Benzodioxol-5-yl)-N-methyl-3-[5-(2-methyl-2-phenyl-propanoyl)-3-(trifluoromethyl)-6,7-dihydro-4H-pyrazolo[4,3-c]pyridin-1-yl]benzamide]	< 1000 nM
